Assay results taken from patent US8841321B2, “Quinoline derivatives as antibacterial agents” (Janssen Pharmaceutica NV, priority 2005, dated 2014).
Values after ≈ are worked out from the molar mass of the structure shown.

Legend:
[1] = tested on: SPN 6305 (Streptococcus pneumoniae (ATCC6305)); assay: Microtitre plate assay, IC90 determination; assay type: cell-based; settings: for IC90: Streptococcus pneumoniae, ATCC6305, Streptococcus pneumoniae (ATCC6305), read-out: IC90 (μg/ml) SPN 6305; for IC90 (μg/ml) SPN 6305: Streptococcus pneumoniae (ATCC6305)
Method: (§1) The bacteria used in this study were grown overnight in flasks containing 100 ml Mueller-Hinton Broth (Becton Dickinson—cat. no. 275730) in sterile de-ionized water, with shaking, at 37° C. Stocks (0.5 ml/tube) were stored at −70° C. until use. Bacteria titrations were performed in microtiter plates and colony forming units (CFUs) were determined. In general, an inoculum level of approximately 100 CFUs was used for susceptibility testing.
(§2) Flat-bottom, sterile 96-well plastic microtiter plates were filled with 180 μl of sterile deionized water, supplemented with 0.25% BSA. Subsequently, stock solutions (7.8× final test concentration) of compounds were added in 45 μl volumes in column 2. Serial five-fold dilutions (45 μl in 180 μl) were made directly in the microtiter plates from column 2 to reach column 11. Untreated control samples with (column 1) and without (column 12) inoculum were included in each microtiter plate. Depending on the bacteria type, approximately 10 to 60 CFU per well of bacteria inoculum (100 TCID50), in a volume of 100 μl in 2.8× Mueller-Hinton broth medium, was added to the rows A to H, except column 12. The same volume of broth medium without inoculum was added to column 12 in row A to H. The cultures were incubated at 37° C. for 24 hours under a normal atmosphere (incubator with open air valve and continuous ventilation). At the end of incubation, one day after inoculation, the bacterial growth was quantitated fluorometrically. Therefore resazurin (0.6 mg/ml) was added in a volume of 20 μl to all wells 3 hours after inoculation, and the plates were re-incubated overnight. A change in colour from blue to pink indicated the growth of bacteria. The fluorescence was read in a computer-controlled fluorometer (Cytofluor Biosearch) at an excitation wavelength of 530 nm and an emission wavelength of 590 nm. The % growth inhibition achieved by the compounds was calculated according to standard methods. The IC90 (expressed in μg/ml) was defined as the 90% inhibitory concentration for bacterial growth.

[2] = tested on: STA 29213 (Staphylococcus aureus (ATCC29213)); assay: Microtitre plate assay, IC90 determination; assay type: cell-based; settings: for IC90 (μg/ml) STA 29213: Staphylococcus aureus (ATCC29213); for IC90: Staphylococcus aureus, ATCC29213, Staphylococcus aureus (ATCC29213), read-out: IC90 (μg/ml) STA 29213
Method: as §1, §2

Row | Structure (SMILES) | IC90 [1] [µg/mL] | IC90 (μg/ml) SPN 6305 [1] [µg/mL] | IC90 (μg/ml) STA 29213 [2] [µg/mL] | IC90 [2] [µg/mL]
1 | COc1nc2ccc(Br)cc2cc1C(c1ccccc1)C(O)(CCCCN(C)Cc1ccccc1)c1ccccc1 (stereo not drawn) [Compound 61] | 5.43 (≈ 8.91 µM) |  |  | 
2 | COc1nc2ccc(Br)cc2cc1C(c1ccccc1)C(O)(CCCCN1CCN(C)CC1)CCC1CCCCC1 (single isomer, unassigned) [Compound 125] |  | 4.95 (≈ 7.95 µM) | 9.87 (≈ 15.9 µM) | 
3 | COc1nc2ccc(Br)cc2cc1C(c1ccccc1)C(O)(CCCCN1CCN(C)CC1)c1ccccc1 (single isomer, unassigned) [Compound 110] |  | 4.68 (≈ 7.95 µM) | 9.33 (≈ 15.9 µM) | 
4 | COc1nc2ccc(Br)cc2cc1C(c1ccccc1)C(O)(CCCCN1CCCCC1)CC(C)C (racemic) [Compound 121] |  | 1.96 (≈ 3.54 µM) | 8.77 (≈ 15.8 µM) | 
5 | COc1nc2ccc(Br)cc2cc1C(c1ccccc1)C(O)(CCCCN1CCCCC1)c1ccccc1 (single isomer, unassigned) [Compound 101] |  | 9.09 (≈ 15.8 µM) | 9.09 (≈ 15.8 µM) | 
6 | COc1nc2ccc(Br)cc2cc1C(c1ccccc1)C(O)(CCCCN1CCCCC1)c1ccccc1 (single isomer, unassigned) [Compound 98] |  | 2.04 (≈ 3.56 µM) | 1.81 (≈ 3.16 µM) | 
7 | COc1nc2ccc(Br)cc2cc1C(c1ccccc1)C(O)(CCCCN(C)C)c1ccc2c(c1)OCO2 (stereo not drawn) [Compound 10] | 10.3 (≈ 17.8 µM) |  |  | 11.5 (≈ 19.9 µM)
8 | COc1nc2ccc(Br)cc2cc1C(c1ccccc1)C(O)(CCCCN1CCCC1)c1ccccc1 (racemic) [Compound 93] |  | 9.95 (≈ 17.8 µM) | 11.16 (≈ 19.9 µM) | 
9 | COc1nc2cc(C)ccc2cc1C(c1ccccc1)C(O)(CCCCN(C)C)c1ccc2ccccc2c1 (single isomer, unassigned) [Compound 77] |  | 1.84 (≈ 3.55 µM) | 1.84 (≈ 3.55 µM) | 
10 | COc1nc2ccccc2cc1C(c1ccc(Br)cc1)C(O)(CCCCN(C)C)c1ccc2ccccc2c1 (stereo not drawn) [Compound 65] |  | 2.32 (≈ 3.98 µM) | 1.85 (≈ 3.17 µM) | 
11 | COc1nc2ccc(-c3cccnc3)cc2cc1C(c1ccccc1)C(O)(CCCCN(C)C)c1ccccc1 (stereo not drawn) [Compound 43] |  |  |  | 21.2 (≈ 39.9 µM)
12 | CCCCN(C)CCCCC(O)(c1ccccc1)C(c1ccccc1)c1cc2cc(Br)ccc2nc1OC (racemic) [Compound 92] |  | 2.29 (≈ 3.98 µM) | 11.48 (≈ 19.9 µM) | 
13 | COc1nc2ccc(Br)cc2cc1C(c1ccccc1)C(O)(CCCCN(C)C)c1cc(F)ccc1F (stereo not drawn) [Compound 14] |  | 57.0 (≈ 100 µM) |  | 14.3 (≈ 25.1 µM)
14 | COc1nc2cc(C)ccc2cc1C(c1ccccc1)C(O)(CCCCN(C)C)c1ccc2ccccc2c1 (single isomer, unassigned) [Compound 78] |  |  | 1.84 (≈ 3.55 µM) | 
15 | COc1nc2ccc(Br)cc2cc1C(c1ccccc1)C(O)(CCCCN(C)Cc1ccccc1)c1ccccc1 (stereo not drawn) [Compound 60] |  | 5.4 (≈ 8.86 µM) |  | 

Second part, the compound after the results:

Row | IC90 [1] [µg/mL] | IC90 (μg/ml) SPN 6305 [1] [µg/mL] | IC90 (μg/ml) STA 29213 [2] [µg/mL] | IC90 [2] [µg/mL] | Structure (SMILES)
16 |  | 1.79 (≈ 3.15 µM) | 2.26 (≈ 3.98 µM) |  | COc1nc2ccc(Br)cc2cc1C(c1ccccc1)C(O)(CCCCN1CCCCC1)CCC(C)C (single isomer, unassigned) [Compound 123]
17 |  | 2.52 (≈ 3.98 µM) | 4 (≈ 6.31 µM) |  | COc1ccc(C(c2cc3cc(Br)ccc3nc2OC)C(O)(CCCCN2CCCCC2)c2ccc(OC)cc2)cc1 (single isomer, unassigned) [Compound 169]
18 |  | 2.74 (≈ 4.47 µM) | 2.44 (≈ 3.98 µM) |  | COc1ccc(C(c2cc3cc(Br)ccc3nc2OC)C(O)(CCCCN(C)C)c2ccc3ccccc3c2)cc1 (single isomer, unassigned) [Compound 157]
19 |  | 1.74 (≈ 3.15 µM) | 6.19 (≈ 11.2 µM) |  | COc1nc2ccc(Br)cc2cc1C(c1ccccc1)C(O)(CCCCN(C)C)CCc1ccco1 (single isomer, unassigned) [Compound 129]
20 |  | 2.12 (≈ 4.52 µM) | 1.7 (≈ 3.63 µM) |  | CNCCCCCC(O)(c1ccccc1)C(c1ccccc1)c1cc2cc(C)ccc2nc1OC (single isomer, unassigned) [Compound 151]
21 |  | 7.25 (≈ 12.6 µM) |  |  | COc1nc2ccc(Br)cc2cc1C(c1ccccc1)C(O)(CCCCN1CCOCC1)c1ccccc1 (single isomer, unassigned) [Compound 114]
22 |  | 2.23 (≈ 3.54 µM) | 1.99 (≈ 3.16 µM) |  | COc1nc2ccc(Br)cc2cc1C(c1ccccc1)C(O)(CCCCc1ccccc1)CCCCN1CCCCC1 (single isomer, unassigned) [Compound 148]
23 |  | 6.19 (≈ 11.2 µM) | 8.74 (≈ 15.8 µM) |  | COc1nc2ccc(Br)cc2cc1C(c1ccccc1)C(O)(CCCCN(C)C)CCc1ccco1 (single isomer, unassigned) [Compound 130]
24 |  | 7.65 (≈ 15.8 µM) | 3.8 (≈ 7.87 µM) |  | COc1nc2ccc(C)cc2cc1C(c1ccccc1)C(O)(CCCCCN(C)C)c1ccccc1 (single isomer, unassigned) [Compound 153]
25 |  | 2.29 (≈ 4.46 µM) | 9.13 (≈ 17.8 µM) |  | COc1nc2ccc(Br)cc2cc1C(c1ccccc1)C(O)(CCCCN(C)C)CC(C)C (racemic) [Compound 117]
26 |  | 2.23 (≈ 3.54 µM) | 1.99 (≈ 3.16 µM) |  | COc1nc2ccc(Br)cc2cc1C(c1ccccc1)C(O)(CCCCc1ccccc1)CCCCN1CCCCC1 (single isomer, unassigned) [Compound 149]
27 |  | 2.07 (≈ 3.55 µM) | 1.85 (≈ 3.17 µM) |  | COc1nc2ccccc2cc1C(c1cccc(Br)c1)C(O)(CCCCN(C)C)c1ccc2ccccc2c1 (single isomer, unassigned) [Compound 161]
28 |  | 2.04 (≈ 3.54 µM) | 5.76 (≈ 10 µM) |  | COc1nc2ccc(Br)cc2cc1C(c1ccccc1)C(O)(CCCCN1CCOCC1)c1ccccc1 (single isomer, unassigned) [Compound 116]
29 |  | 2.06 (≈ 3.55 µM) | 1.84 (≈ 3.17 µM) |  | COc1nc2ccccc2cc1C(c1ccc(-c2ccccc2)cc1)C(O)(CCCCN(C)C)c1ccc2ccccc2c1 (stereo not drawn) [Compound 176]
30 |  | 10.53 (≈ 20 µM) | 8.36 (≈ 15.8 µM) |  | COc1nc2ccc(Br)cc2cc1C(c1ccccc1)C(O)(CCCCN(C)C)CCC(C)C (racemic) [Compound 120]
31 |  | 4.19 (≈ 7.94 µM) | 18.72 (≈ 35.5 µM) |  | COc1nc2ccc(Br)cc2cc1C(c1ccccc1)C(O)(CCCCN(C)C)CCC(C)C (racemic) [Compound 119]
32 |  | 0.31 (≈ 0.502 µM) | 1.4 (≈ 2.27 µM) |  | COc1nc2ccc(Br)cc2cc1C(c1ccc(Cl)cc1)C(O)(CCCCN(C)C)c1ccc2ccccc2c1 (single isomer, unassigned) [Compound 164]
33 |  | 1.73 (≈ 3.16 µM) | 1.73 (≈ 3.16 µM) |  | COc1nc2ccc(Br)cc2cc1C(c1ccccc1)C(O)(CCCCN(C)C)Cc1ccccc1 (single isomer, unassigned) [Compound 127]
34 |  | 2.29 (≈ 3.98 µM) |  |  | COc1nc2ccc(Br)cc2cc1C(c1ccccc1)C(O)(CCCCN1CCOCC1)c1ccccc1 (single isomer, unassigned) [Compound 115]
35 |  |  | 1.73 (≈ 3.16 µM) |  | COc1nc2ccc(Br)cc2cc1C(c1ccccc1)C(O)(CCCCN(C)C)Cc1ccccc1 (single isomer, unassigned) [Compound 128]
